Data taken from US20030134859A1 (SANKYO COMPANY, LIMITED, priority 2000, published 2003).

How the values were obtained:
TNF-α production = assay: Inhibitory activity against cytokine (TNF-α) production in LPS-stimulated RAW264.7 cells; format: cell-based, mouse; details: 1 μM test compound, LPS 10 ng/mL; for inhibition at 1 µM: Mus musculus
Procedure, shortened: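 Mouse RAW264.7 macrophages (5,000 cells/well) stimulated with 10 ng/mL LPS (final) and treated with test compound at 1 μM final for 15 h at 37 °C. Supernatant mouse TNF-α measured by ELISA; % inhibition = 100−(A−B)/(C−B)×100, using unstimulated and LPS-only controls.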

Rat white adipocytes = assay: Inhibition of the differentiation of adipocytes (Oil Red O); format: cell-based; details: 100 nM test compound, 5 days, Oil Red O ABS550, control = 100%, blank = 0%, Table 3; for activity at 0.1 µM: Rattus norvegicus, Adipocyte, 120 h, read-out: Rate of Differentiation (%)
Procedure, shortened: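 Rat white preadipocytes, 5,000 cells/well, given differentiation medium with compound at 100 nM final (0.1% DMSO) for 5 days at 37 °C. Lipid stained with Oil Red O, eluted in DMSO, read at 550 nm; differentiation % relative to DMSO control (100%) and blank (0%).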

For `Cc1ccc(C(=O)Nc2nc3ccc(NC(=O)c4cc([N+](=O)[O-])ccc4Cl)cc3s2)cc1` [Example 149, N-[2-(4-Methylbenzoylamino)benzothiazol-6-yl]-(2-chloro-5-nitrophenyl)carboxamide], the inhibition at 1 µM (TNF-α production; RAW264.7, 15 h) was 18.8% and the activity at 0.1 µM (Rat white adipocytes) was 80.3%.

Work on `O=C(Nc1ccc(N2CCN(C(=O)c3ccccc3)CC2)cc1)c1cc([N+](=O)[O-])ccc1Cl` [Example 184, N-[4-(4-Benzoylpiperazin-1-yl)phenyl]-(2-chloro-5-nitrophenyl)carboxamide] yielded an inhibition at 1 µM (TNF-α production; RAW264.7, 15 h) of 15% and an activity at 0.1 µM (Rat white adipocytes) of 46.6%.

Work on `CC(C)(C)OC(=O)Nc1ccc(-c2csc(NC(=O)c3cc([N+](=O)[O-])ccc3Cl)n2)cc1` [Example 190, N-[4-(4-tert-Butoxycarbonylaminophenyl)thiazol-2-yl]-(2-chloro-5-nitrophenyl)carboxamide] yielded an inhibition at 1 µM (TNF-α production; RAW264.7, 15 h) of 33.8% and an activity at 0.1 µM (Rat white adipocytes) of 64.2%.

With `Nc1ccc(-c2ccc(NC(=O)c3cc([N+](=O)[O-])ccc3Cl)cc2)cc1` [Example 192, N-[4-(4-Aminophenyl)phenyl]-(2-chloro-5-nitrophenyl)carboxamide] the “Inhibitory Activity (%) against TNF-α production” value (“Inhibitory Activity (%)” below) (TNF-α production; 15 hr, 1 µM) was 27.9% and the “Rate of Differentiation (%)” value (Rat white adipocytes) was 17.6%.

For `CCCN(CCC)c1ccc(-c2ccc(NC(=O)c3cc([N+](=O)[O-])ccc3Cl)cc2)cc1` [Example 194, N-[4-[4-(N,N-Dipropylamino)phenyl]phenyl]-(2-chloro-5-nitrophenyl)carboxamide], the inhibition at 1 µM (TNF-α production; RAW264.7, 15 h) was 18.4% and the activity at 0.1 µM (Rat white adipocytes) was 37.1%.

In the case of `CCCCNc1ccc(-c2ccc(NC(=O)c3cc([N+](=O)[O-])ccc3Cl)cc2)cc1` [Example 203, N-[4-[4-(N-Butylamiino)phenyl]phenyl]-(2-chloro-5-nitrophenyl)carboxamide], the “Inhibitory Activity (%)” value (TNF-α production; 15 hr) is reported as 27.1% and the “Rate of Differentiation (%)” value (Rat white adipocytes) is reported as 32.6%.

With `CCCNc1ccc(-c2ccc(NC(=O)c3cc([N+](=O)[O-])ccc3Cl)cc2)cc1` [Example 204, N-[4-[4-(N-Propylamino)phenyl]phenyl]-(2-chloro-5-nitrophenyl)carboxamide] the inhibition at 1 µM (TNF-α production; RAW264.7, 15 h) was 32.7% and the activity at 0.1 µM (Rat white adipocytes) was 38.3%.

Work on `CCNc1ccc(-c2ccc(NC(=O)c3cc([N+](=O)[O-])ccc3Cl)cc2)cc1` [Example 205, N-[4-[4-(N-Ethylamino)phenyl]phenyl]-(2-chloro-5-nitrophenyl)carboxamide] yielded an inhibition at 1 µM (TNF-α production; RAW264.7, 15 h) of 34.9% and an activity at 0.1 µM (Rat white adipocytes) of 39.8%.

Work on `CCCCCN(CCCC)c1ccc(-c2ccc(NC(=O)c3cc([N+](=O)[O-])ccc3Cl)cc2)cc1` [Example 206, N-[4-[4-(N-Butyl-N-pentylamino)phenyl]phenyl]-(2-chloro-5-nitrophenyl)carboxamide] yielded an inhibition at 1 µM (TNF-α production; RAW264.7, 15 h) of 27.5% and an activity at 0.1 µM (Rat white adipocytes) of 30.6%.

For `CCCCN(CCCC)c1ccc(-c2ccc(NC(=O)c3cc([N+](=O)[O-])ccc3Cl)cc2)cc1` [Example 207, N-[4-[4-(N,N-Dibutylamino)phenyl]phenyl]-(2-chloro-5-nitrophenyl)carboxamide], the inhibition at 1 µM (TNF-α production; RAW264.7, 15 h) was 27.1% and the activity at 0.1 µM (Rat white adipocytes) was 32.7%.

Molecule `CCCCN(CCC)c1ccc(-c2ccc(NC(=O)c3cc([N+](=O)[O-])ccc3Cl)cc2)cc1` [Example 208, N-[4-[4-(N-Butyl-N-propylamino)phenyl]phenyl]-(2-chloro-5-nitrophenyl)carboxamide] has an inhibition at 1 µM (TNF-α production; RAW264.7, 15 h) of 26.3% and an activity at 0.1 µM (Rat white adipocytes) of 35.1%.

`CCCCN(CC)c1ccc(-c2ccc(NC(=O)c3cc([N+](=O)[O-])ccc3Cl)cc2)cc1` [Example 209, N-[4-[4-(N-Butyl-N-ethylamino)phenyl]phenyl]-(2-chloro-5-nitrophenyl)carboxamide] was tested, and the inhibition at 1 µM (TNF-α production; RAW264.7, 15 h) was 26.9% and the activity at 0.1 µM (Rat white adipocytes) was 40.1%.

In the case of `CCCN(CC)c1ccc(-c2ccc(NC(=O)c3cc([N+](=O)[O-])ccc3Cl)cc2)cc1` [Example 212, N-[4-[4-(N-Ethyl-N-propylamino)phenyl]phenyl]-(2-chloro-5-nitrophenyl)carboxamide], the inhibition at 1 µM (TNF-α production; RAW264.7, 15 h) is reported as 31.2% and the activity at 0.1 µM (Rat white adipocytes) is reported as 44%.

With `CCCCCN(CCCCC)c1ccc(-c2ccc(NC(=O)c3cc([N+](=O)[O-])ccc3Cl)cc2)cc1` [Example 214, N-[4-[4-(N,N-Dipentylamino)phenyl]phenyl]-(2-chloro-5-nitrophenyl)carboxamide] the inhibition at 1 µM (TNF-α production; RAW264.7, 15 h) was 20.1% and the activity at 0.1 µM (Rat white adipocytes) was 31.7%.

For `CCCCCN(CC)c1ccc(-c2ccc(NC(=O)c3cc([N+](=O)[O-])ccc3Cl)cc2)cc1` [Example 216, N-[4-[4-(N-Ethyl-N-pentylamino)phenyl]phenyl]-(2-chloro-5-nitrophenyl)carboxamide], the inhibition at 1 µM (TNF-α production; RAW264.7, 15 h) was 30.6% and the activity at 0.1 µM (Rat white adipocytes) was 32.1%.

With `CCN(CC)c1ccc(-c2ccc(NC(=O)c3cc([N+](=O)[O-])ccc3Cl)cc2)cc1` [Example 217, N-[4-[4-(N,N-Diethylamino)phenyl]phenyl]-(2-chloro-5-nitrophenyl)carboxamide] the inhibition at 1 µM (TNF-α production; RAW264.7, 15 h) was 28.7% and the activity at 0.1 µM (Rat white adipocytes) was 21%.

`CCN(C)c1ccc(-c2ccc(NC(=O)c3cc([N+](=O)[O-])ccc3Cl)cc2)cc1` [Example 218, N-[4-[4-(N-Ethyl-N-methylamino)phenyl]phenyl]-(2-chloro-5-nitrophenyl)carboxamide] was tested, and the inhibition at 1 µM (TNF-α production; RAW264.7, 15 h) was 20.3% and the activity at 0.1 µM (Rat white adipocytes) was 31.7%.

In the case of `O=C(Nc1ccc(-c2ccc(NC(=S)Nc3cccc(F)c3)cc2)cc1)c1cc([N+](=O)[O-])ccc1Cl` [Example 245, N-[4-[4-[(3-Fluorophenyl)aminothiocarbonylamino]phenyl]phenyl]-(2-chloro-5-nitrophenyl)carboxamide], the inhibition at 1 µM (TNF-α production; RAW264.7, 15 h) is reported as 34.6% and the activity at 0.1 µM (Rat white adipocytes) is reported as 36.1%.

In the case of `CCOC(=O)NC(=S)Nc1ccc(-c2ccc(NC(=O)c3cc([N+](=O)[O-])ccc3Cl)cc2)cc1` [Example 251, N-[4-[4-(Ethoxycarbonylaminothiocarbonylamino)phenyl]phenyl]-(2-chloro-5-nitrophenyl)carboxamide], the inhibition at 1 µM (TNF-α production; RAW264.7, 15 h) is reported as 29% and the activity at 0.1 µM (Rat white adipocytes) is reported as 39.9%.

`O=C(Nc1ccc(-c2ccc(NC(=S)Nc3ccccc3)cc2)cc1)c1cc([N+](=O)[O-])ccc1Cl` [Example 252, N-[4-[4-(Phenylaminothiocarbonylamino)phenyl]phenyl]-(2-chloro-5-nitrophenyl)carboxamide] was tested, and the inhibition at 1 µM (TNF-α production; RAW264.7, 15 h) was 19.3% and the activity at 0.1 µM (Rat white adipocytes) was 36.7%.

`O=C(Nc1ccc(-c2ccc(NC(=O)c3cc([N+](=O)[O-])ccc3Cl)cc2)cc1)Nc1ccccc1[N+](=O)[O-]` [Example 254, N-[4-[4-(2-Nitrophenylaminocarbonylamino)phenyl]phenyl]-(2-chloro-5-nitrophenyl)carboxamide] was tested, and the inhibition at 1 µM (TNF-α production; 15 hr) was 44.3% and the activity at 0.1 µM (Rat white adipocytes) was 52.8%.

`O=C(NC(=S)NCCc1ccc(NC(=O)c2cc([N+](=O)[O-])ccc2Cl)cc1)c1ccccc1` [Example 271, N-[4-(2-Phenylcarbonylaminothiocarbonylaminoethyl)phenyl]-(2-chloro-5-nitrophenyl)carboxamide] was tested, and the inhibition at 1 µM (TNF-α production; RAW264.7, 15 h) was 25.2% and the activity at 0.1 µM (Rat white adipocytes) was 45.4%.

With `CCS(=O)(=O)N(c1ccc(-c2ccc(NC(=O)c3cc([N+](=O)[O-])ccc3Cl)cc2)cc1)S(=O)(=O)CC` [Example 276, N-[4-[4-(N,N-Diethanesulfonylamino)phenyl]phenyl]-(2-chloro-5-nitrophenyl)carboxamide] the inhibition at 1 µM (TNF-α production; RAW264.7, 15 h) was 28.5% and the activity at 0.1 µM (Rat white adipocytes) was 14.9%.

In the case of “N-[4-(Benzenesulfonylaminophenyl)phenyl]-(2-chloro-5-nitrophenyl)carboxamide [Example 128]”, the “Inhibitory Activity (%)” value (TNF-α production; 15 hr) is reported as 28.8% and the “Rate of Differentiation (%)” value (Rat white adipocytes) is reported as 35.4%.
